91 molecules from a melting point compilation (Tetko et al.; mined from patent text by program, amines drawn as free bases though some values may be those of a salt) can be followed below.

Some results are limits rather than exact numbers.

`COC(=O)C1=C(C)NC2(O)COC(=O)C2C1c1cccc([N+](=O)[O-])c1` (stereo unspecified) had a melting point of 147 to 149 °C.
Turning to `O=C(Nc1cc2ncc(CN3CCCC3)cc2cc1F)c1ccc(Br)cc1`, the melting point is 119 to 121 °C.
To `CC1C(c2ccccc2)OP(N)(=O)N1C` (stereo unspecified) belongs 170 to 172 °C; to `O=c1c2ccccc2n(SC(Cl)(Cl)Cl)c(=O)n1SC(Cl)(Cl)Cl`, 154 to 156 °C; to `Cc1ccc2c(c1)C(=O)c1nc3ccccc3c(=O)n1-2`, 283 to 285 °C.
`COc1ccc(N(CC(=O)NCCC(=O)O)C(=O)c2ccc(Cl)cc2)cc1` returned a melting point of 129 to 131 °C.
On to `Cc1sc2c(Br)c3ccccc3c(-c3cc(Br)c(O)c(C(C)C)c3)c2c1C`, for which the melting point was 157 to 162 °C.
Turning to `CCCCCc1nc2c(N)nc3ccccc3c2n1CCCCNC(=O)Nc1ccccc1`, the melting point was in the range of 159 to 160 °C.
Then `CCc1ccc(-c2[nH]nc3c2C(=O)c2c(NC(C)=O)cccc2-3)cc1`, with 294 °C; and `CCCCOC(=O)c1cc(OCc2ccccc2)c2c(Cl)cc(Cl)cc2n1`, with 130 to 132 °C; and `COc1ccc2c(c1)CC(=O)N2N`, with 136 to 138 °C.
Consider `CCCC(=O)NS(=O)(=O)c1cccc(-c2cccc(-c3cc(-c4ccc(C(F)(F)F)cc4)cc(C)n3)n2)c1`, for which the melting point was 188 °C.
For `Brc1cccc(OCc2ccc3ccccc3n2)c1`, the melting point lay within 79 to 81 °C.
For `CCOC(=O)N1CCC(Nc2nc3ccccc3n2Cc2ccoc2C)CC1`, the melting point was determined as 150 °C.
Then `O=C1c2ccccc2-c2c1c1ccccc1c(=O)n2CCCCO`, with 165 to 166 °C.
To `COc1cc2nc(N3CCN(c4nc5ccccc5[nH]4)CC3)nc(N)c2cc1OC` belongs more than 250 °C; to `CC(C(=O)O)c1cc(Cl)c(N2CCOCC2)cc1O` (stereo unspecified), 198 to 200 °C.
Consider `COC(=O)c1ccc(-c2ccc(C(OC)OC)cc2)cc1`, for which the melting point lay within 76 to 77 °C.
Turning to `Cc1nc(N2CCN(CC3CC3(F)F)C2=O)sc1C(=O)NCc1cncs1` (stereo unspecified), the melting point fell in the range of 182 to 184 °C.
To `Cn1c(CO)nc2ccc(-c3ccccc3)nc21` belongs 174 to 177 °C; to `Nc1ccc(-c2cc(=O)c(C(=O)O)cn2-c2ccc(F)cc2)cc1`, 262 to 266 °C; to `CC(C)c1nc(CN)n(C)c1Sc1cc(Cl)cc(Cl)c1`, 86 to 87 °C.
Then `N#Cc1ccccc1-c1ccc(O)cc1`, with 176 to 178 °C; and `COc1cc2c(cc1OC)C(C)C(C)=NN=C2c1cccc(Cl)c1` (stereo unspecified), with 156 to 158 °C; and `CCc1[nH]n(C2CCCC2)c2nc(Cc3ccc(OCCN4CCOCC4)cc3)nc(=O)c1-2`, with 136 to 137 °C.
Then `Cc1cc(Br)cnc1CCCCNN1Cc2ccccc2S(=O)(=O)N1`, with 187 to 188 °C.
`O=C(Nc1ccc(N2CCN(Cc3ccccc3)CC2)cc1)c1ccccc1-c1ccc(C(F)(F)F)cc1` displayed a melting point of 180 °C.
Then `OCCC#Cc1cnc2ccccc2c1`, with 95.7 to 96.7 °C; and `C[C@@]1(C(=O)O)CSC(Cc2cc(F)cc(F)c2)=N1`, with 120 to 122 °C; and `Cc1c(-c2ccccc2)oc2cc(NC(=O)C(=O)O)ccc2c1=O`, with 243 °C.
Turning to `CCCCCCCCC1C=CC(/C(C)=C/c2ccc(C(=O)O)o2)=C2N=C3CCCCC3=C21` (stereo unspecified), the melting point is 152 to 154 °C.
Take `Cc1ccc(C2C(=O)NC(=O)NC2=O)cc1`: the melting point worked out at 271 °C.
In turn, `CCCOc1nsc(NC(=O)C(C)C)c1C#N` came in with a melting point of 220 to 221 °C.
The molecule `CCOc1cc(C)nc(-n2ccnc2)n1` showed a melting point of 116 °C.
In the case of `Cc1nnc(-c2ccc3occ(-c4ccccn4)c3c2)o1`, the melting point is 148 to 149 °C.
To `CC(C)(C)C(NC(=O)CCc1ccccc1)Nc1c(Nc2cccnc2)c(=O)c1=O` (stereo unspecified) belongs 219 to 220 °C.
To `FC(F)(F)c1cccc(Nc2nccc(-c3cccnc3)n2)c1` belongs 170 to 171 °C.
Then `Cc1nnc2ccc(-c3cccc(N(C)C(=O)C4CC4)c3)nn12`, with 169 to 172 °C; and `Cc1ccncc1-n1nc(C)c(CC(=O)O)c1-c1ccccc1`, with 246 °C.
On to `O=C(NCc1ccc(Cl)cc1)c1cnc2c(C(F)(F)F)cc(CCCO)cc2c1O`, for which the melting point lay in the range of 249 to 250 °C.
To `CC(=O)c1cc(C[C@H](NC(=O)c2c(Cl)cccc2Cl)C(=O)O)ccc1-c1ccccc1` belongs 109 to 111 °C.
Then `COc1ccc2nc(-n3nc4c(c3O)-c3ccccc3CC4)sc2c1`, with 204 to 205 °C.
Molecule `O=C(O)C1=CSC2C(=Cc3nc4ncc5c(n4n3)CCC3(C5)OCCO3)C(=O)N12` (stereo unspecified) returned a melting point of more than 250 °C.
Take `N#Cc1nc(Cl)sc1Cl`: the melting point lay within 56.5 to 57 °C.
Consider `N=C1NC(=O)C(Cc2ccc(OCCN3CCOCC3)cc2)S1` (stereo unspecified), for which the melting point lay in the range of 189 to 190 °C.
Then `COC(=O)c1ccc(CCC(C)NCC(O)c2cc3ccccc3o2)cc1` (stereo unspecified), with 104 to 108 °C.
Consider `COc1c(C)cccc1CC(N)(CF)C(N)=O` (stereo unspecified), for which the melting point came to 118 °C.
Take `O=c1[nH]nc2c3cccc(Cl)c3[nH]c(=O)n12`: the melting point fell in the range of 348 to 350 °C.
The molecule `Cn1c(-c2ccc(Br)cc2)c(OCCOc2ccc(C=C3SC(=O)NC3=O)cc2)c(=O)c2ccccc21` had a melting point of 151 to 154 °C.
To `Cc1c(NCc2ccccc2)c2c(c3c1C(c1ccc(C(C)C)cc1)CO3)CCCC2` (stereo unspecified) belongs 98 to 99 °C.
Then `Nc1nc2ccc(NC(=O)CNC(=O)[C@@H](Cc3ccccc3)NS(=O)(=O)Cc3ccccc3)cc2s1`, with 127 to 130 °C.
Consider `COc1cc2nc(N3CCc4c(cccc4C(=N)N4CCOCC4)C3)[nH]c(=O)c2cc1OC`, for which the melting point fell in the range of 249 to 251 °C.
Molecule `Cc1c(SCCN2CCOCC2)ccnc1CSc1nc2ccccc2n1CCO` gave a melting point of 141 to 143 °C.
Then `Nc1c(-c2ccccc2)nn2c1ccc1ccccc12`, with 255 to 258 °C; and `CN1C(=O)C(C)(C)CCc2cc(C(=O)O)ccc21`, with 240 to 241 °C.
Then `Cc1ccc2c(N3CCc4ccc(Cl)cc43)ncnc2c1`, with 265 °C; and `COc1ccc(CN2CCOCC2)c(OC)c1-c1ccc(C[C@H](NC(=O)c2c(Cl)cccc2Cl)C(=O)O)cc1`, with 241 to 242 °C.
Turning to `OC(Cn1cncn1)(c1ccc(Cl)cc1)C(Cl)(Cl)C(Cl)Cl` (stereo unspecified), the melting point was 168 to 169 °C.
Then `COc1cccc(N(CC(=O)OC(C)(C)C)C(=O)CNC(=O)Nc2cccc(C)c2)c1`, with 60 °C; and `O=c1c(-c2ccccc2)c[nH]n1-c1ccccn1`, with 132 to 133 °C.
As to `CCOCCOc1cc(C(C)C)c(NC(=O)CN2CCN(CCSc3nc4ccccc4o3)CC2)c(C(C)C)c1`, the melting point was 92 to 95 °C.
The molecule `COc1cccc(Cc2cnc(NCCSCc3nccs3)[nH]c2=O)c1` came in with a melting point of 104 to 106 °C.
In turn, `O=[N+]([O-])c1cc(C(c2ccc(Nc3ccccc3)c([N+](=O)[O-])c2)(C(F)(F)F)C(F)(F)F)ccc1Nc1ccccc1` showed a melting point of 165 to 166 °C.
To `O=C(O)c1cccc(CNC2CC3CC2C2CCCC32)c1` (stereo unspecified) belongs 258 to 261 °C; to `CCCc1ccc(-c2cnc(C#N)c(C#N)n2)cc1`, 87 to 87.9 °C; to `N#Cc1cnc2cc3ccc(O)cc3cc2c1Nc1ccc(Cl)cc1Cl`, more than 300 °C.
In the case of `NP(N)(=O)NCCCBr`, the melting point fell in the range of 60 to 65 °C.
In turn, `O=S1(=O)NCN(CCF)c2ccc(F)cc21` showed a melting point of 133 to 134 °C.
As to `CN1C(=O)C(C(=O)Nc2ccc(Oc3nc4ccc(Cl)cc4s3)cc2)C(=O)N(C)C1=S`, the melting point is 213 to 215 °C.
To `Cc1ccc2cc(C)[nH]c2c1` belongs 74 to 76 °C.
To `C[C@@H]1Cc2ccsc2[C@H](c2cccs2)N1CCNS(=O)(=O)c1ccc(N)cc1` (relative stereo) belongs 156 to 161 °C; to `CS(=O)(=O)c1ccccc1OCCF`, 67 to 69 °C; to `FC(F)(F)Oc1ccc(C=CC(C=Cc2ccc(OC(F)(F)F)cc2)=NNC2=NCCCCN2)cc1`, 184 to 186 °C.
In the case of `CNC(=O)c1c(C(F)(F)F)nc(C(F)F)c(C(=O)OC)c1NC(C)C`, the melting point was 128 to 130 °C.
`CC(C(=O)NC1Cc2ccccc2CC1O)c1ccccc1` (stereo unspecified) gave a melting point of 158 °C.
Then `CC1(C)Oc2ccsc2C(NC(=O)c2ccncc2)C1O` (stereo unspecified), with 223 to 234 °C; and `COC(=O)c1ccc(Cc2cccc3ccc(C=O)cc23)c(OC)c1`, with 103 to 104 °C; and `COc1cc(OC)nc(C(=O)c2nccc(-c3ccccc3)c2C(=O)n2ccnc2)c1`, with 126 to 128 °C.
To `Cc1cc(O)c(Oc2ccccc2C#N)cc1N1CCOCC1` belongs 162 to 165 °C; to `Ic1nnnn1Cc1ccccc1`, 122 °C.
In the case of `COC(=O)c1ccccc1-c1nc(COc2ccc(COc3nn(-c4ccccc4)cc3C=O)cc2OC)c(C)o1`, the melting point lay in the range of 134 to 135 °C.
As to `C=CCN1CCN2c3ccccc3Cn3cccc3C2C1` (stereo unspecified), the melting point lay in the range of 130 to 132 °C.
To `O=C(O)c1cccc(NC(=O)C(CS)Cc2ccc(F)cc2F)c1` (stereo unspecified) belongs 168 to 170 °C.
With `CC(=O)On1c(=N)n[n+]([O-])c2ccccc21`, the melting point lay within 194 to 196 °C.
The molecule `COc1ccc(Nc2cc(Cl)nc(SC)n2)cc1` showed a melting point of 128 to 131 °C.
Then `Nc1cccc(Nc2nccc(-c3cccnc3)n2)c1`, with 89 to 90 °C; and `CC(C)(C)NC(=O)[C@@H]1CNNC1=O`, with 175 to 178 °C; and `CCS(=O)(=O)Nc1cc(-n2nc3n(c2=O)CCCS3)c(F)cc1C#N`, with 193 to 195 °C.
As to `COC(=O)c1cc(CBr)cnc1C1=NC(C)(C(C)C)C(=O)N1C(=O)c1ccccc1` (stereo unspecified), the melting point lay in the range of 88 to 119 °C.
To `CCCC12CCC3C4=C(CCC3C1CCC2=O)CC(OC)=CC4` (stereo unspecified) belongs 128 to 131 °C; to `CCCCOc1ccc(CCCO)c(Oc2ncc(C(F)(F)F)cc2Cl)c1`, 72.6 to 72.7 °C.

The melting point is the temperature, or range, at which the solid turns liquid.
